pIC50: −log10 of the molar value.
Biological target: T1, Human Rheumatoid Synovial Collagenase (Homo sapiens, UniProt P03956)
T1 construct: from tissue
T1 sequence (P03956 100-469): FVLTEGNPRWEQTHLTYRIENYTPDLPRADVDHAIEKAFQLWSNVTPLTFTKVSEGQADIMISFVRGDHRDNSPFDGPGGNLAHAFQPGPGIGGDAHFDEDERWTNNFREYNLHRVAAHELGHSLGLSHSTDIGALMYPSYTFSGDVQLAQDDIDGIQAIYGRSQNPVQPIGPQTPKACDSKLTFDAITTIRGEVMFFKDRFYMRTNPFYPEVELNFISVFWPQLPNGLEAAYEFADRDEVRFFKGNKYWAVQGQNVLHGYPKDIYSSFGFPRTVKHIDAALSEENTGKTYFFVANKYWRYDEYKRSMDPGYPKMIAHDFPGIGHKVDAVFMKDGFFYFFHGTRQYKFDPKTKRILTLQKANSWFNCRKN
Test: Collagenase inhibition (acetyl 14C collagen hydrolysis, procedure of Cawston and Barrett)
Assay type: biochemical
Details: incubated at 37° C. for 16 hours with native acetyl 14C collagen and collagenase, Tris HCl-CaCl2, pH 7.6
Protocol: This was determined following the procedure of Cawston and Barrett, (Anal. […] The collagen is acetyl ^14 C collagen. The samples are centrifuged to sediment undigested collagen and an aliquot of the radioactive supernatant removed for assay on a scintillation counter as a measure of hydrolysis.

Structure (SMILES) | pIC50
CNC(=O)[C@H](Cc1ccc(OC)cc1)NC(=O)C(CC(C)C)C(C)C(=O)NO (single isomer, unassigned) [3(A), N-[3-(N'-Hydroxycarboxamido)-2-(2-methylpropyl)butanoyl]-O-methyl-L-tyrosine N-Methylamide] | 6.40
CNC(=O)[C@H](Cc1ccc(OC)cc1)NC(=O)C(CC(C)C)C(C)C(=O)NO (single isomer, unassigned) [3(B), N-[3-(N'-Hydroxycarboxamido)-2-(2-methylpropyl)butanoyl]-O-methyl-L-tyrosine N-Methylamide] | 4.70
CNC(=O)[C@H](Cc1ccc(OC)cc1)NC(=O)C(CC(C)C)C(C)C(=O)NO (single isomer, unassigned) [3(C), N-[3-(N'-Hydroxycarboxamido)-2-(2-methylpropyl)butanoyl]-O-methyl-L-tyrosine N-Methylamide] | 7.70
CNC(=O)[C@H](Cc1ccc(OC)cc1)NC(=O)C(CC(C)C)C(C)C(=O)NO (single isomer, unassigned) [3(D), N-[3-(N'-Hydroxycarboxamido)-2-(2-methylpropyl)butanoyl]-O-methyl-L-tyrosine N-Methylamide] | 6.52
CNC(=O)[C@H](Cc1ccc(OC)cc1)NC(=O)C(CC(C)C)C(C(=O)NO)c1ccccc1 (single isomer, unassigned) [4(A), N-[3-(N'-Hydroxycarboxamido)-2-(2-methylpropyl)-3-phenylpropanoyl]-O-methyl-L-tyrosine N-Methylamide] | 6.22
CNC(=O)[C@H](Cc1ccc(OC)cc1)NC(=O)C(CC(C)C)C(C(=O)NO)c1ccccc1 (single isomer, unassigned) [4(B), N-[3-(N'-Hydroxycarboxamido)-2-(2-methylpropyl)-3-phenylpropanoyl]-O-methyl-L-tyrosine N-Methylamide] | 6.00
CNC(=O)[C@H](C)NC(=O)C(CC(=O)NO)CC(C)C (single isomer, unassigned) [8(A), N-[3-(N'-Hydroxycarboxamido)-2-(2-methylpropyl)propanoyl]-L-alanine N-Methylamide] | 6.82
CNC(=O)[C@H](Cc1ccc(O)cc1)NC(=O)C(CC(=O)NO)CC(C)C (single isomer, unassigned) [9(A), N-[3-(N'-Hydroxycarboxamido)-2-(2-methylpropyl)propanoyl]-L-tyrosine N-Methylamide] | 7.43
CNC(=O)[C@H](Cc1ccc(O)cc1)NC(=O)C(CC(=O)NO)CC(C)C (single isomer, unassigned) [9(B), N-[3-(N'-Hydroxycarboxamido)-2-(2-methylpropyl)propanoyl]-L-tyrosine N-Methylamide] | 6.28
CCCCC(CC(=O)NO)C(=O)N[C@@H](Cc1ccc(OC)cc1)C(=O)NC (single isomer, unassigned) [12(B)] | 6.00
CNC(=O)[C@H](Cc1ccc(OC)cc1)NC(=O)C(CC(=O)NO)Cc1ccccc1 (single isomer, unassigned) [13(A), N-[3-(N'-Hydroxycarboxamido)-2-benzylpropanoyl]-O-methyl-L-tyrosine N-Methylamide] | 5.30
CNC(=O)[C@H](Cc1ccc(OC)cc1)NC(=O)C(CC(=O)NO)Cc1ccccc1 (single isomer, unassigned) [13(B), N-[3-(N'-Hydroxycarboxamido)-2-benzylpropanoyl]-O-methyl-L-tyrosine N-Methylamide] | < 4.00
CCCCC(C(=O)NO)C(CC(C)C)C(=O)N[C@@H](Cc1ccc(OC)cc1)C(=O)NC (single isomer, unassigned) [18(A), N-[3-(N'-Hydroxycarboxamido)-2-(2-methylpropyl)heptanoy]-O-methyl-L-tyrosine N-Methylamide] | 6.70
CCCCC(C(=O)NO)C(CC(C)C)C(=O)N[C@@H](Cc1ccc(OC)cc1)C(=O)NC (single isomer, unassigned) [18(B), N-[3-(N'-Hydroxycarboxamido)-2-(2-methylpropyl)heptanoy]-O-methyl-L-tyrosine N-Methylamide] | < 4.00
CNC(=O)[C@H](C)NC(=O)C(CC(C)C)C(C)C(=O)NO (single isomer, unassigned) [19(A), N-[3-(N'-Hydroxycarboxamido)-2-(2-methylpropyl)butanoyl]-L-alanine N-Methylamide] | 4.00
CNC(=O)[C@H](C)NC(=O)C(CC(C)C)C(C)C(=O)NO (single isomer, unassigned) [19(B), N-[3-(N'-Hydroxycarboxamido)-2-(2-methylpropyl)butanoyl]-L-alanine N-Methylamide] | 6.52
CCCCC(CC(=O)NO)C(=O)N[C@@H](Cc1ccc(OC)cc1)C(=O)NC (stereo partly drawn) [12(A)] | 7.52
CNC(=O)[C@H](Cc1ccc(OC)cc1)NC(=O)C(C)CC(=O)NO (stereo partly drawn) [Example 5, N-[3-(N'-Hydroxycarboxamido)-2-methylpropanoyl]-O-methyl-L-tyrosine N-Methylamide] | 3.00 to 4.00
CNC(=O)[C@H](Cc1ccc(OC)cc1)NC(=O)CCC(=O)NO [Example 6, N-[3-(N'-Hydroxycarboxamido)propanoyl]-O-methyl-L-tyrosine N-Methylamide] | < 3.00
CNC(=O)[C@H](Cc1ccc(OC)cc1)NC(=O)C(=CC(=O)NO)CC(C)C [Example 7, N-[3-(N'-Hydroxycarboxamido)-2-(2-methylpropyl)propenoyl]-O-methyl-L-tyrosine N-Methylamide] | 6.15
CNC(=O)[C@H](Cc1ccc(OC)cc1)NC(=O)C(CC(C)C)=C(C)C(=O)NO [Example 20, N-[3-(N'-Hydroxycarboxamido)-2-(2-methylpropyl)-Δ^2,3-butenoyl]-O-methyl-L-tyrosine N Methylamide] | 6.00

Reference: patent publication US4743587A, “Hydroxamic acid based collagenase inhibitors” (G. D. Searle & Co., priority 1986, dated 1988)
